Each compound was assayed on human fibrosarcoma cells HT-1080 (assay: Anti-fibrosis activity test: inhibition of proliferation of human fibrosarcoma cells HT-1080 (CCK-8)). Details: Homo sapiens, HT-1080, 48 h, human fibrosarcoma cells HT-1080, CCK-8, 48 hours.
Format: cell-based
Procedure, shortened: (§1)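 A CCK-8 proliferation assay was run: cells at 2×10^4 cells/mL, adherent for 24 h, then incubated 48 h at 37° C with compound dilutions. A450 was recorded 2 h after CCK-8 addition and converted to percent inhibition versus blank for IC50 determination.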
In the case of `O=C(COc1c2c(nc3ccccc13)-c1cccn1C2=O)c1ccc(Cl)cc1` [Compound 90b, 9-(2-(4-chlorophenyl)-2-oxoethoxy)-10H-pyrrolizino[1,2-b]quinolin-10-one], the IC50 was 5 to 20 mM.
`CC(C)(O)Cn1c2c(c(=O)c3ccccc31)C(=O)n1cccc1-2` [Compound 660a, 4-(2-Hydroxy-2-methylpropyl)-9H-pyrrolizino[1,2-b]quinoline-9,10(4H)-dione] gave an IC50 of 0.05 to 5 mM.
For `COc1ccc2c(=O)c3c([nH]c2c1)-c1cccn1C3=O` [Compound 560a, 6-Methoxy-9H-pyrrolizino[1,2-b]quinoline-9,10(4H)-dione], the IC50 was 0.05 to 5 mM.
Work on `O=C1c2c(n(Cc3ccccc3C(F)(F)F)c3ccccc3c2=O)-c2cccn21` [Compound 581a, 4-(2-(Trifluoromethyl)benzyl)-9H-pyrrolizino[1,2-b]quinoline-9,10(4H)-dione] yielded an IC50 of 0.05 to 5 mM.
With `O=C1c2c(n(Cc3ccc(Cl)cc3)c3ccccc3c2=O)-c2cccn21` [Compound 589a, 4-(4-Chlorobenzyl)-9H-pyrrolizino[1,2-b]quinoline-9,10(4H)-dione] the IC50 was 0.05 to 5 mM.

Each compound was assayed on NF-κB (assay: Immunological activity test: inhibition of NF-κB activity). Details: initial concentration of 30 μM; a/b isomers given as first/second symbol; read-out: IC50 (μM), inhibitory activity against NF-κB.
Format: cell-based
Procedure, shortened: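 Compounds were first screened for inhibition of NF-κB activity at 30 μM, with parthenolide as the positive control. IC50 values were then determined for the compounds by further analysis of the assay data.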
`O=C(COc1c2c(nc3ccccc13)-c1cccn1C2=O)c1ccc(Cl)cc1` [Compound 90b, 9-(2-(4-chlorophenyl)-2-oxoethoxy)-10H-pyrrolizino[1,2-b]quinolin-10-one] gave an IC50 of 1 to 10 µM.
For `CC(C)(O)Cn1c2c(c(=O)c3ccccc31)C(=O)n1cccc1-2` [Compound 660a, 4-(2-Hydroxy-2-methylpropyl)-9H-pyrrolizino[1,2-b]quinoline-9,10(4H)-dione], the IC50 was 1 to 10 µM.
`COc1ccc2c(=O)c3c([nH]c2c1)-c1cccn1C3=O` [Compound 560a, 6-Methoxy-9H-pyrrolizino[1,2-b]quinoline-9,10(4H)-dione] showed an IC50 of 1 to 10 µM.
`O=C1c2c(n(Cc3ccccc3C(F)(F)F)c3ccccc3c2=O)-c2cccn21` [Compound 581a, 4-(2-(Trifluoromethyl)benzyl)-9H-pyrrolizino[1,2-b]quinoline-9,10(4H)-dione] gave an IC50 of 1 to 10 µM.
With `O=C1c2c(n(Cc3ccc(Cl)cc3)c3ccccc3c2=O)-c2cccn21` [Compound 589a, 4-(4-Chlorobenzyl)-9H-pyrrolizino[1,2-b]quinoline-9,10(4H)-dione] the IC50 was 1 to 10 µM.

The compounds below were run on cardiac fibroblast RAT-iCell-C002 (assay: Anti-fibrosis activity test: inhibition of proliferation of cardiac fibroblast RAT-iCell-C002 (CCK-8)). Details: Cardiac fibroblast, 48 h, cardiac fibroblast RAT-iCell-C002, CCK-8, 48 hours.
Format: cell-based
Procedure, shortened: as §1
Work on `O=C(COc1c2c(nc3ccccc13)-c1cccn1C2=O)c1ccc(Cl)cc1` [Compound 90b, 9-(2-(4-chlorophenyl)-2-oxoethoxy)-10H-pyrrolizino[1,2-b]quinolin-10-one] yielded an IC50 of 0.05 to 5 mM.
`CC(C)(O)Cn1c2c(c(=O)c3ccccc31)C(=O)n1cccc1-2` [Compound 660a, 4-(2-Hydroxy-2-methylpropyl)-9H-pyrrolizino[1,2-b]quinoline-9,10(4H)-dione] was tested, and the IC50 was 0.05 to 5 mM.
`COc1ccc2c(=O)c3c([nH]c2c1)-c1cccn1C3=O` [Compound 560a, 6-Methoxy-9H-pyrrolizino[1,2-b]quinoline-9,10(4H)-dione] was tested, and the IC50 was 0.05 to 5 mM.
Compound `O=C1c2c(n(Cc3ccccc3C(F)(F)F)c3ccccc3c2=O)-c2cccn21` [Compound 581a, 4-(2-(Trifluoromethyl)benzyl)-9H-pyrrolizino[1,2-b]quinoline-9,10(4H)-dione] has an IC50 of 0.05 to 5 mM.
Work on `O=C1c2c(n(Cc3ccc(Cl)cc3)c3ccccc3c2=O)-c2cccn21` [Compound 589a, 4-(4-Chlorobenzyl)-9H-pyrrolizino[1,2-b]quinoline-9,10(4H)-dione] yielded an IC50 of 0.05 to 5 mM.

The compounds below were run on mouse macrophages (RAW264.7) (assay: Lipopolysaccharide-induced NO secretion in macrophages (Griess)). Details: Mus musculus, RAW264.7, 24 h, RAW264.7, LPS 1 μg/ml, a/b isomers given as first/second symbol, read-out: IC50 (μM), inhibition of lipopolysaccharide-induced NO secretion in macrophages.
Format: cell-based
Procedure, shortened: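 Absorbance at 548 nm after Griess reagent addition to culture supernatant gave NO content; inhibition rate was derived relative to blank control. Cells were mouse RAW264.7 macrophages exposed to compounds and 1 μg/ml LPS for 24 hours.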
In the case of `O=C(COc1c2c(nc3ccccc13)-c1cccn1C2=O)c1ccc(Cl)cc1` [Compound 90b, 9-(2-(4-chlorophenyl)-2-oxoethoxy)-10H-pyrrolizino[1,2-b]quinolin-10-one], the IC50 was 0.1 to 1 µM.
For `CC(C)(O)Cn1c2c(c(=O)c3ccccc31)C(=O)n1cccc1-2` [Compound 660a, 4-(2-Hydroxy-2-methylpropyl)-9H-pyrrolizino[1,2-b]quinoline-9,10(4H)-dione], the IC50 was 1 to 10 µM.
`COc1ccc2c(=O)c3c([nH]c2c1)-c1cccn1C3=O` [Compound 560a, 6-Methoxy-9H-pyrrolizino[1,2-b]quinoline-9,10(4H)-dione] gave an IC50 of 10 to 50 µM.
Work on `O=C1c2c(n(Cc3ccccc3C(F)(F)F)c3ccccc3c2=O)-c2cccn21` [Compound 581a, 4-(2-(Trifluoromethyl)benzyl)-9H-pyrrolizino[1,2-b]quinoline-9,10(4H)-dione] yielded an IC50 of 0.1 to 1 µM.
In the case of `O=C1c2c(n(Cc3ccc(Cl)cc3)c3ccccc3c2=O)-c2cccn21` [Compound 589a, 4-(4-Chlorobenzyl)-9H-pyrrolizino[1,2-b]quinoline-9,10(4H)-dione], the IC50 was 1 to 10 µM.

These compounds were tested on human hepatic stellate cells LX-2 (assay: Anti-fibrosis activity test: inhibition of proliferation of human hepatic stellate cells LX-2 (CCK-8)). Details: Homo sapiens, 48 h, human hepatic stellate cells LX-2, CCK-8, 48 hours.
Format: cell-based
Procedure, shortened: as §1
Work on `O=C(COc1c2c(nc3ccccc13)-c1cccn1C2=O)c1ccc(Cl)cc1` [Compound 90b, 9-(2-(4-chlorophenyl)-2-oxoethoxy)-10H-pyrrolizino[1,2-b]quinolin-10-one] yielded an IC50 of 0.05 to 5 mM.
`CC(C)(O)Cn1c2c(c(=O)c3ccccc31)C(=O)n1cccc1-2` [Compound 660a, 4-(2-Hydroxy-2-methylpropyl)-9H-pyrrolizino[1,2-b]quinoline-9,10(4H)-dione] showed an IC50 of 0.05 to 5 mM.
With `COc1ccc2c(=O)c3c([nH]c2c1)-c1cccn1C3=O` [Compound 560a, 6-Methoxy-9H-pyrrolizino[1,2-b]quinoline-9,10(4H)-dione] the IC50 was 0.05 to 5 mM.
Work on `O=C1c2c(n(Cc3ccccc3C(F)(F)F)c3ccccc3c2=O)-c2cccn21` [Compound 581a, 4-(2-(Trifluoromethyl)benzyl)-9H-pyrrolizino[1,2-b]quinoline-9,10(4H)-dione] yielded an IC50 of 0.05 to 5 mM.
For `O=C1c2c(n(Cc3ccc(Cl)cc3)c3ccccc3c2=O)-c2cccn21` [Compound 589a, 4-(4-Chlorobenzyl)-9H-pyrrolizino[1,2-b]quinoline-9,10(4H)-dione], the IC50 was under 0.05 mM.

Each compound was assayed on human embryonic lung fibroblast IMR-90 (assay: Anti-fibrosis activity test: inhibition of proliferation of human embryonic lung fibroblast IMR-90 (CCK-8)). Details: human embryonic lung fibroblast IMR-90, CCK-8, 48 hours.
Format: cell-based
Procedure, shortened: as §1
In the case of `O=C(COc1c2c(nc3ccccc13)-c1cccn1C2=O)c1ccc(Cl)cc1` [Compound 90b, 9-(2-(4-chlorophenyl)-2-oxoethoxy)-10H-pyrrolizino[1,2-b]quinolin-10-one], the IC50 was 0.05 to 5 mM.
With `CC(C)(O)Cn1c2c(c(=O)c3ccccc31)C(=O)n1cccc1-2` [Compound 660a, 4-(2-Hydroxy-2-methylpropyl)-9H-pyrrolizino[1,2-b]quinoline-9,10(4H)-dione] the IC50 was 0.05 to 5 mM.
Compound `COc1ccc2c(=O)c3c([nH]c2c1)-c1cccn1C3=O` [Compound 560a, 6-Methoxy-9H-pyrrolizino[1,2-b]quinoline-9,10(4H)-dione] has an IC50 of 0.05 to 5 mM.
`O=C1c2c(n(Cc3ccccc3C(F)(F)F)c3ccccc3c2=O)-c2cccn21` [Compound 581a, 4-(2-(Trifluoromethyl)benzyl)-9H-pyrrolizino[1,2-b]quinoline-9,10(4H)-dione] showed an IC50 of 0.05 to 5 mM.
`O=C1c2c(n(Cc3ccc(Cl)cc3)c3ccccc3c2=O)-c2cccn21` [Compound 589a, 4-(4-Chlorobenzyl)-9H-pyrrolizino[1,2-b]quinoline-9,10(4H)-dione] showed an IC50 of 0.05 to 5 mM.

These compounds were tested on human lung fibroblasts HFL1 (assay: Anti-fibrosis activity test: inhibition of proliferation of human lung fibroblasts HFL1 (CCK-8)). Details: Homo sapiens, HFL1, 48 h, human lung fibroblasts HFL1, CCK-8, 48 hours.
Format: cell-based
Procedure, shortened: as §1
With `O=C(COc1c2c(nc3ccccc13)-c1cccn1C2=O)c1ccc(Cl)cc1` [Compound 90b, 9-(2-(4-chlorophenyl)-2-oxoethoxy)-10H-pyrrolizino[1,2-b]quinolin-10-one] the IC50 was 0.05 to 5 mM.
For `CC(C)(O)Cn1c2c(c(=O)c3ccccc31)C(=O)n1cccc1-2` [Compound 660a, 4-(2-Hydroxy-2-methylpropyl)-9H-pyrrolizino[1,2-b]quinoline-9,10(4H)-dione], the IC50 was 0.05 to 5 mM.
`COc1ccc2c(=O)c3c([nH]c2c1)-c1cccn1C3=O` [Compound 560a, 6-Methoxy-9H-pyrrolizino[1,2-b]quinoline-9,10(4H)-dione] was tested, and the IC50 was 0.05 to 5 mM.
Compound `O=C1c2c(n(Cc3ccccc3C(F)(F)F)c3ccccc3c2=O)-c2cccn21` [Compound 581a, 4-(2-(Trifluoromethyl)benzyl)-9H-pyrrolizino[1,2-b]quinoline-9,10(4H)-dione] has an IC50 of 0.05 to 5 mM.
For `O=C1c2c(n(Cc3ccc(Cl)cc3)c3ccccc3c2=O)-c2cccn21` [Compound 589a, 4-(4-Chlorobenzyl)-9H-pyrrolizino[1,2-b]quinoline-9,10(4H)-dione], the IC50 was 0.05 to 5 mM.

Each compound was assayed on human dermal fibroblasts CCC-ESF-1 (assay: Anti-fibrosis activity test: inhibition of proliferation of human dermal fibroblasts CCC-ESF-1 (CCK-8)). Details: Fibroblast; human dermal fibroblasts CCC-ESF-1, CCK-8, 48 hours.
Format: cell-based
Procedure, shortened: as §1
With `O=C(COc1c2c(nc3ccccc13)-c1cccn1C2=O)c1ccc(Cl)cc1` [Compound 90b, 9-(2-(4-chlorophenyl)-2-oxoethoxy)-10H-pyrrolizino[1,2-b]quinolin-10-one] the IC50 was 0.05 to 5 mM.
`CC(C)(O)Cn1c2c(c(=O)c3ccccc31)C(=O)n1cccc1-2` [Compound 660a, 4-(2-Hydroxy-2-methylpropyl)-9H-pyrrolizino[1,2-b]quinoline-9,10(4H)-dione] gave an IC50 of 0.05 to 5 mM.
With `COc1ccc2c(=O)c3c([nH]c2c1)-c1cccn1C3=O` [Compound 560a, 6-Methoxy-9H-pyrrolizino[1,2-b]quinoline-9,10(4H)-dione] the IC50 was 0.05 to 5 mM.
`O=C1c2c(n(Cc3ccccc3C(F)(F)F)c3ccccc3c2=O)-c2cccn21` [Compound 581a, 4-(2-(Trifluoromethyl)benzyl)-9H-pyrrolizino[1,2-b]quinoline-9,10(4H)-dione] gave an IC50 of 0.05 to 5 mM.
Compound `O=C1c2c(n(Cc3ccc(Cl)cc3)c3ccccc3c2=O)-c2cccn21` [Compound 589a, 4-(4-Chlorobenzyl)-9H-pyrrolizino[1,2-b]quinoline-9,10(4H)-dione] has an IC50 of 0.05 to 5 mM.

What follows are compounds tested on BHK-21 cells (assay: Anti-fibrosis activity test: inhibition of BHK-21 cell proliferation (CCK-8)). Details: Mesocricetus auratus, BHK-21, 48 h, CCK-8, 48 hours after administration.
Format: cell-based
Procedure, shortened: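 BHK-21 cells seeded at 2×10^4 cells/mL, allowed to adhere 24 h at 37° C, 5% CO2, then exposed to compounds at graded concentrations in triplicate for 48 h. CCK-8 added for 2 h and absorbance read at 450 nm; inhibition rate taken as (1−Ai/Ao)×100% and IC50 fitted.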
With `O=C(COc1c2c(nc3ccccc13)-c1cccn1C2=O)c1ccc(Cl)cc1` [Compound 90b, 9-(2-(4-chlorophenyl)-2-oxoethoxy)-10H-pyrrolizino[1,2-b]quinolin-10-one] the IC50 was 0.05 to 5 mM.
With `CC(C)(O)Cn1c2c(c(=O)c3ccccc31)C(=O)n1cccc1-2` [Compound 660a, 4-(2-Hydroxy-2-methylpropyl)-9H-pyrrolizino[1,2-b]quinoline-9,10(4H)-dione] the IC50 was 0.05 to 5 mM.
Work on `COc1ccc2c(=O)c3c([nH]c2c1)-c1cccn1C3=O` [Compound 560a, 6-Methoxy-9H-pyrrolizino[1,2-b]quinoline-9,10(4H)-dione] yielded an IC50 of 0.05 to 5 mM.
For `O=C1c2c(n(Cc3ccccc3C(F)(F)F)c3ccccc3c2=O)-c2cccn21` [Compound 581a, 4-(2-(Trifluoromethyl)benzyl)-9H-pyrrolizino[1,2-b]quinoline-9,10(4H)-dione], the IC50 was 0.05 to 5 mM.
In the case of `O=C1c2c(n(Cc3ccc(Cl)cc3)c3ccccc3c2=O)-c2cccn21` [Compound 589a, 4-(4-Chlorobenzyl)-9H-pyrrolizino[1,2-b]quinoline-9,10(4H)-dione], the IC50 was under 0.05 mM.

Reference: patent US11040028B2, “Penicinotam derivative, preparation method and use thereof” (OCEAN UNIVERSITY OF CHINA, priority 2017, dated 2021)
